In publication PMC11844072, “Novel 5,6-dichlorobenzimidazole derivatives as dual BRAFWT and BRAFV600E inhibitors: design, synthesis, anti-cancer activity and molecular dynamics simulations” (BMC Chemistry, 2025):

Experiments:
Test in all cases: NCI 60 single concentration growth inhibition
Assay type in all cases: cell-based, human
A498 = settings: Homo sapiens, A498, Renal cancer, read-out: GI%
In short: (§1)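 For the single-dose testing, a 10 µM concentration was applied for 48 h. Adherent lines were fixed with cold TCA, stained with SRB and read at 515 nm, and the result was reported as percent growth versus untreated cells.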

ACHN = settings: Homo sapiens, Renal cancer, read-out: GI%
In short: as §1

CAKI-1 = settings: Homo sapiens, CAKI-1, Renal cancer, read-out: GI%
In short: as §1

EKVX = settings: Homo sapiens, Non-small cell lung cancer, read-out: GI%
In short: as §1

HOP-62 = settings: Homo sapiens, HOP-62, Non-small cell lung cancer, read-out: GI%
In short: as §1

MDA-MB-468 = settings: Homo sapiens, MDA-MB-468, Breast cancer, read-out: GI%
In short: as §1

NCI-H23 = settings: Homo sapiens, NCI-H23, Non-small cell lung cancer, read-out: GI%
In short: as §1

PC-3 = settings: Homo sapiens, PC-3, Prostate cancer, read-out: GI%
In short: as §1

SF-295 = settings: Homo sapiens, SF-295, CNS cancer, read-out: GI%
In short: as §1

SK-OV-3 = settings: Homo sapiens, SK-OV-3, Ovarian cancer, read-out: GI%
In short: as §1

DU-145 = settings: Homo sapiens, DU-145, Prostate cancer, read-out: GI%
In short: as §1

HCT-15 = settings: Homo sapiens, HCT-15, Colon cancer, read-out: GI%
In short: as §1

HT29 = settings: Homo sapiens, HT-29, HT29, Colon cancer, read-out: GI%
In short: as §1

LOX IMVIL = settings: Homo sapiens, Melanoma, read-out: GI%
In short: as §1

NCI-H522 = settings: Homo sapiens, NCI-H522, Non-small cell lung cancer, read-out: GI%
In short: as §1

OVCAR-3 = settings: Homo sapiens, OVCAR-3, Ovarian cancer, read-out: GI%
In short: as §1

OVCAR-4 = settings: Homo sapiens, OVCAR-4, Ovarian cancer, read-out: GI%
In short: as §1

TK-10 = settings: Homo sapiens, TK-10, Renal cancer, read-out: GI%
In short: as §1

U251 = settings: Homo sapiens, U-251, U251, CNS cancer, read-out: GI%
In short: as §1

SMILES | inhibition at 10 µM (A498) [%] | inhibition at 10 µM (ACHN) [%] | inhibition at 10 µM (CAKI-1) [%] | inhibition at 10 µM (EKVX) [%] | inhibition at 10 µM (HOP-62) [%] | inhibition at 10 µM (MDA-MB-468) [%] | inhibition at 10 µM (NCI-H23) [%] | inhibition at 10 µM (PC-3) [%] | inhibition at 10 µM (SF-295) [%] | inhibition at 10 µM (SK-OV-3) [%] | inhibition at 10 µM (DU-145) [%] | inhibition at 10 µM (HCT-15) [%] | inhibition at 10 µM (HT29) [%] | inhibition at 10 µM (LOX IMVIL) [%] | inhibition at 10 µM (NCI-H522) [%] | inhibition at 10 µM (OVCAR-3) [%] | inhibition at 10 µM (OVCAR-4) [%] | inhibition at 10 µM (TK-10) [%] | inhibition at 10 µM (U251) [%]
COC(=O)COc1cc(C=NNC(=O)Cn2c(-c3ccc(OC)cc3)nc3cc(Cl)c(Cl)cc32)ccc1OC [Compound 10o, Methyl-2-(5-((2-(2-(5,6-dichloro-2-(4-methoxyphenyl)-1H-benzo[d]imidazol-1-yl)acetyl)hydrazono)methyl)-2-methoxyphenoxy)acetate] | < 5 | 71.3 | 37 | 14 | < 5 | 118 | 7.03 | 51.2 | < 5 | 24.1 | 155 | 23.6 | 90.3 | 36.4 | 32.7 | < 5 | 18 | < 5 | 6.53
COC(=O)COc1ccc(C=NNC(=O)Cn2c(-c3ccc(OC)cc3)nc3cc(Cl)c(Cl)cc32)cc1OC [Compound 10p, Methyl-2-(4-((2-(2-(5,6-dichloro-2-(4-methoxyphenyl)-1H-benzo[d]imidazol-1-yl)acetyl)hydrazono)methyl)-2-methoxyphenoxy)acetate] | < 5 | 95.2 | 16.5 | 18.9 | < 5 | 159 | < 5 | 79.8 | < 5 | < 5 | 143 | 21.5 | 116 | 25.2 | 6.3 | < 5 | < 5 | 58 | < 5
